Assay [1] concerns the target Rho-associated protein kinase 1 (Homo sapiens) (UniProt Q13464). Nature of the assay: Selectivity interaction (ActivX KiNativ screen (ex vivo kinase selectivity in human PBMCs)) EUB0001619a ROCK1. The note with it: PBMC, at 1 µM. The assay is classed as cell-based.
In assay [2] the target is Fibroblast growth factor receptor 1 (Homo sapiens, UniProt P11362). Nature of the assay: Selectivity interaction (KinomeScan (DiscoverX)) EUB0000607a FGFR1. The note with it: at 10 µM.
Sequence of Fibroblast growth factor receptor 1 (P11362 22-822 limits assumed): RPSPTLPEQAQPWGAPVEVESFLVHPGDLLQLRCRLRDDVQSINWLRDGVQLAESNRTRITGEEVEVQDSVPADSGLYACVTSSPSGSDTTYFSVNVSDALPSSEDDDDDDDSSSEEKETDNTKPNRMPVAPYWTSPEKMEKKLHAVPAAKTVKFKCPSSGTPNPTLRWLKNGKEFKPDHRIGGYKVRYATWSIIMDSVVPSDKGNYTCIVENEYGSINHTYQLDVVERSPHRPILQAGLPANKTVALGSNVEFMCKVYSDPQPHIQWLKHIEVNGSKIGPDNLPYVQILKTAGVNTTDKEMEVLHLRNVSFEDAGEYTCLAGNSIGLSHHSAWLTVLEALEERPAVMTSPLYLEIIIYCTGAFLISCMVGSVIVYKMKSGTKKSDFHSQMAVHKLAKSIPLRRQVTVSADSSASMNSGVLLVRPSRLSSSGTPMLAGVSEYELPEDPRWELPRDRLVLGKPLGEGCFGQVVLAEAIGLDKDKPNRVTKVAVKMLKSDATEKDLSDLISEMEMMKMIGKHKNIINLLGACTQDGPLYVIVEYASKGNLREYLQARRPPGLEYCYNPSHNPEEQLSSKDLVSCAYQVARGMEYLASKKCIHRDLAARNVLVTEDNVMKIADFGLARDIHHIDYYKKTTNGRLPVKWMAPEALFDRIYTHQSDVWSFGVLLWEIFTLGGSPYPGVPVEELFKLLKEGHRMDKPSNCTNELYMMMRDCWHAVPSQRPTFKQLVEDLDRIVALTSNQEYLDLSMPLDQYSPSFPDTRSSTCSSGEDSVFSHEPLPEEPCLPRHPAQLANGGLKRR
Assay [3] has as its target cAMP-dependent protein kinase catalytic subunit alpha (Homo sapiens, UniProt P17612). The assay can be described thus: Selectivity interaction (Kinase counterscreening (biochemical assay)) EUB0000604a PRKACA. A general note: The purpose of a counterscreen is to sort out artefacts and off-target activity.
The target of assay [4] is Ribosomal protein S6 kinase alpha-1 (Homo sapiens, UniProt Q15418). The assay can be described thus: Selectivity interaction (Kinase panel (DSF assay)) EUB0001559a RPS6KA1. A general note: Differential scanning fluorimetry follows unfolding on heating by fluorescence.
Sequence of Ribosomal protein S6 kinase alpha-1 (Q15418 whole entry): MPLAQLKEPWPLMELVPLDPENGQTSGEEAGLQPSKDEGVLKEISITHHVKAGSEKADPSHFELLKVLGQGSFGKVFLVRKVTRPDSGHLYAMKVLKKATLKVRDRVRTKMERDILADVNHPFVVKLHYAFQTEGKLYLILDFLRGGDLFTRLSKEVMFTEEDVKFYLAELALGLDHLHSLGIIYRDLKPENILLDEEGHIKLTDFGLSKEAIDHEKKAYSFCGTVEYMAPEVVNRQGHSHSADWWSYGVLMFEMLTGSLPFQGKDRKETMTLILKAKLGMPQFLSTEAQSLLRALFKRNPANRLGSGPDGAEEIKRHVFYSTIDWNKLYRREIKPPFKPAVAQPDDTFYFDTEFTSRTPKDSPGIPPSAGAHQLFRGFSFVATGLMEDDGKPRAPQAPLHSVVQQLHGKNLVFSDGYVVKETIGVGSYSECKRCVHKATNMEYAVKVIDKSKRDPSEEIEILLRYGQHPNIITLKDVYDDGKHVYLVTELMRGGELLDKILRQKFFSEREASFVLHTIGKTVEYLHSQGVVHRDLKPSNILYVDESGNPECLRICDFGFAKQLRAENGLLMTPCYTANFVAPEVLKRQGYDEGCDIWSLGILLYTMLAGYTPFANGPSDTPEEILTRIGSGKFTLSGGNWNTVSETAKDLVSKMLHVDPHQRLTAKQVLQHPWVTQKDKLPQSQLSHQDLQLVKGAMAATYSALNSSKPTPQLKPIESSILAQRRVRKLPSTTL
The target in assay [5] is T1, Rhodopsin kinase GRK7 (Homo sapiens) (UniProt Q8WTQ7).
T1 sequence (whole entry): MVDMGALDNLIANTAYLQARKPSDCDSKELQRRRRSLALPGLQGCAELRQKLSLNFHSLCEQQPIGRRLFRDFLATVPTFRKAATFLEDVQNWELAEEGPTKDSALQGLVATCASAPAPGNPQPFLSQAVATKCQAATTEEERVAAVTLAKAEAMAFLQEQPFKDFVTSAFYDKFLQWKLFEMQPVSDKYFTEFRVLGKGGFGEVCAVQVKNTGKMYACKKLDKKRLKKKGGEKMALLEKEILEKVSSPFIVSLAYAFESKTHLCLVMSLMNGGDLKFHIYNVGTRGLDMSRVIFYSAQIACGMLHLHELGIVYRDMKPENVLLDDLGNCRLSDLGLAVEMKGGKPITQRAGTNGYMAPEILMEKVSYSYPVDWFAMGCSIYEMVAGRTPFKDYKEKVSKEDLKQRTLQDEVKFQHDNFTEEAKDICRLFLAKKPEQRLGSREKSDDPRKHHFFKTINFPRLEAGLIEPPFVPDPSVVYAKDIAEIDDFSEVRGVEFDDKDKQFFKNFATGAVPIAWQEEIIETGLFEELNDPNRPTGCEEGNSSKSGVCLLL
The assay can be described thus: Selectivity interaction (KinomeScan (DiscoverX)) EUB0000045b GRK7.

For assay [6], the target named is Serine/threonine-protein kinase Chk2 (Homo sapiens) (UniProt O96017). Nature of the assay: Selectivity interaction (Kinase panel (literature)) EUB0001199aCl CHEK2. The note with it: at 1 µM.
Sequence of Serine/threonine-protein kinase Chk2 (Homo sapiens) (O96017 whole entry): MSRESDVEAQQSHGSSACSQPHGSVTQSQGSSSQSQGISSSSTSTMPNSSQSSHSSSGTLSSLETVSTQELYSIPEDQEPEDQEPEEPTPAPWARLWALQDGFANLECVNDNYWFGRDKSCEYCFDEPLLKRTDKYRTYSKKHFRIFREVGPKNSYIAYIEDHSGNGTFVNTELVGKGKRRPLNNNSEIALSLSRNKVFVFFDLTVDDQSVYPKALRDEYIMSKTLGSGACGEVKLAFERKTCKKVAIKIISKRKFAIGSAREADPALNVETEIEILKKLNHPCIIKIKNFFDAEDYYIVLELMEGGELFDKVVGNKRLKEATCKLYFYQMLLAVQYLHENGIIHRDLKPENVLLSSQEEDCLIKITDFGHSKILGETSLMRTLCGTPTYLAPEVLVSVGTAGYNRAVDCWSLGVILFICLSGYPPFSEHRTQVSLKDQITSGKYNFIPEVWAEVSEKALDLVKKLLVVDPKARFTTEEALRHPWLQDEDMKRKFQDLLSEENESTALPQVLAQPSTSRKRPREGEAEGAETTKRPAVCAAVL
Assay [7] addresses T2, Cytoplasmic tyrosine-protein kinase BMX (Homo sapiens) (UniProt P51813).
T2 sequence (whole entry): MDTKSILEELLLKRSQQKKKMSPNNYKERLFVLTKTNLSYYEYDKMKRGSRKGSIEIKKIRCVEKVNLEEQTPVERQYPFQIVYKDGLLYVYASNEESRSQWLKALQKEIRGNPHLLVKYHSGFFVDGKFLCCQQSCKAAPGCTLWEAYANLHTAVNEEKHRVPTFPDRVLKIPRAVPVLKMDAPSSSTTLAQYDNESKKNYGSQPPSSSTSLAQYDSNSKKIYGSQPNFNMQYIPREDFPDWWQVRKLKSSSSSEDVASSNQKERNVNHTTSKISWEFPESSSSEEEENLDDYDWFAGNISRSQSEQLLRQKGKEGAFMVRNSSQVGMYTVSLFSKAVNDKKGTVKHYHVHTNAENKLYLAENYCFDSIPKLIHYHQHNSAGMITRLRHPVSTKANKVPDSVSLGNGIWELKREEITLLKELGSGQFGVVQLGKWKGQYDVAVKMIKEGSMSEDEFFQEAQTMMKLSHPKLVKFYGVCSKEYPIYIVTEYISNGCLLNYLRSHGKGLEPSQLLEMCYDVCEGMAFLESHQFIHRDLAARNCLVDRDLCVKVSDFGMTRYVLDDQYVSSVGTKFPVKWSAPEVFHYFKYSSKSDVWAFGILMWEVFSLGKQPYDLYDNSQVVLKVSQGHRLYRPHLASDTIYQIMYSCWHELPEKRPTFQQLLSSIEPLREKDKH
The assay can be described thus: Selectivity interaction (ProQinase) EUB0000171b BMX.

Assay [8] has as its target T3, Serine/threonine-protein kinase D3 (Homo sapiens) (UniProt O94806).
T3 sequence (whole entry): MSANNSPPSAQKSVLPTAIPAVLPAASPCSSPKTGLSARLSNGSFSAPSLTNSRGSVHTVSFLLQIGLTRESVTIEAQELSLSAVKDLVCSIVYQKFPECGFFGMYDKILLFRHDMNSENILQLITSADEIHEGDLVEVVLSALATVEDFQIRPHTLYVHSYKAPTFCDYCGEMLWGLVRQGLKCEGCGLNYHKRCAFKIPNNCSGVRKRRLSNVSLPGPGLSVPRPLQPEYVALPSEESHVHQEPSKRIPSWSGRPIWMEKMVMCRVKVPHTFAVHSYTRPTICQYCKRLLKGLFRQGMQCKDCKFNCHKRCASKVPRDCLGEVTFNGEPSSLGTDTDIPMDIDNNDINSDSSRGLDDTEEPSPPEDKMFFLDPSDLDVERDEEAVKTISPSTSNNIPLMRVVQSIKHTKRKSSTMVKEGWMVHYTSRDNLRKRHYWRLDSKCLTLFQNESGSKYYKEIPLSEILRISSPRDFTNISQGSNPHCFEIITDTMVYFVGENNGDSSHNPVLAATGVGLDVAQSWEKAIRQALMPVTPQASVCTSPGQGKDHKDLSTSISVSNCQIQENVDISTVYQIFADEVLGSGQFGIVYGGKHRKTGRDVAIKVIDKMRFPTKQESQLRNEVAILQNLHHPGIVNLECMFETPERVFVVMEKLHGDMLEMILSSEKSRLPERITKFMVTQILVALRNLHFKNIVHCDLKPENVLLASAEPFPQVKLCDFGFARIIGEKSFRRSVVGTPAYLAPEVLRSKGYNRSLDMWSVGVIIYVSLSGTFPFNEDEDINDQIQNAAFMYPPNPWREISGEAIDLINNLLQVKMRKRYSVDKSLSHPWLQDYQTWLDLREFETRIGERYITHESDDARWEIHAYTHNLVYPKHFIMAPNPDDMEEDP
The assay can be described thus: Selectivity interaction (KinomeScan (DiscoverX)) EUB0001079a PRKD3. The note with it: at 1 µM.

Some results are limits rather than exact numbers.

Sequence of Rho-associated protein kinase 1 (Homo sapiens) (Q13464 2-1354 limits assumed): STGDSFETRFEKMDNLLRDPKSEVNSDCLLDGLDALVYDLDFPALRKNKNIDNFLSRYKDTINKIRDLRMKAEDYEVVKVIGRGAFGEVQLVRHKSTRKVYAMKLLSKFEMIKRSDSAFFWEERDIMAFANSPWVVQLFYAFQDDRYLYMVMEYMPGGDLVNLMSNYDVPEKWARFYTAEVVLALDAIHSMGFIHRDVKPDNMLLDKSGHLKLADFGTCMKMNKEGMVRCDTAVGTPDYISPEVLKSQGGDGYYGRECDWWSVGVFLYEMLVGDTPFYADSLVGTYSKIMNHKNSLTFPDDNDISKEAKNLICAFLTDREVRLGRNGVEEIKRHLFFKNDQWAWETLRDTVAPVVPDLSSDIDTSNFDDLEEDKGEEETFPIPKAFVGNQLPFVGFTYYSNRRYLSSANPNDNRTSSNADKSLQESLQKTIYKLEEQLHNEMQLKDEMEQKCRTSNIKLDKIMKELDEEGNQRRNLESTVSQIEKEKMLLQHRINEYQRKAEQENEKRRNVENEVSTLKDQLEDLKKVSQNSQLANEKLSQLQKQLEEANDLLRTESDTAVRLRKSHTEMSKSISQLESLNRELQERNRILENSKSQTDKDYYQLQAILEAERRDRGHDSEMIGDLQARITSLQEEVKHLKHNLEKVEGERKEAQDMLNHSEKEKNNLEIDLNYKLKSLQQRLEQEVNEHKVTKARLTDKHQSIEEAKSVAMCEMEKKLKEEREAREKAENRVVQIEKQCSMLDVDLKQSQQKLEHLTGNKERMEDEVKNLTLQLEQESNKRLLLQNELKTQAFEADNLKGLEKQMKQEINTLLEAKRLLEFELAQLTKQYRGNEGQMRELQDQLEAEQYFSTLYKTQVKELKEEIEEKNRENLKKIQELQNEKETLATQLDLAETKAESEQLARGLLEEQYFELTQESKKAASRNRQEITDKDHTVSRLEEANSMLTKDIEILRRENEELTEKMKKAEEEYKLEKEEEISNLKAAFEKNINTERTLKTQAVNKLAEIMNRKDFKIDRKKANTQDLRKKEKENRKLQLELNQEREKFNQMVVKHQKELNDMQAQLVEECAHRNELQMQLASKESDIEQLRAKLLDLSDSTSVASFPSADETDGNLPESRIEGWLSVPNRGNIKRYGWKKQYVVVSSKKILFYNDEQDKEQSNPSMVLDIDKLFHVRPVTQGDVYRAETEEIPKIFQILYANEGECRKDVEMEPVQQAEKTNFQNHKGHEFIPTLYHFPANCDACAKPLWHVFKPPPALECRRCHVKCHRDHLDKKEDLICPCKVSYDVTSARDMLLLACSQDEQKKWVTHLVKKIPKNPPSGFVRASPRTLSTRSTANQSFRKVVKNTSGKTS

On to `N#Cc1cccc(-c2c[nH]c3ncnc(N4CCOCC4)c23)c1`, for which the % of inhibition in assay [1] is 2%.

Take `CNC(=O)Nc1ccc(-c2nc(N3CC4CCC(C3)O4)c3cnn(C4CCC5(CC4)OCCO5)c3n2)cc1`: in assay [2], the % of control came to 100%.

For `Cc1cnc(Nc2ccc(F)cc2Cl)nc1-c1c[nH]c(C(=O)N[C@H](CO)c2cccc(Cl)c2)c1`, in assay [3], the Ki was greater than 4 µM.

For `CN(C(=O)c1cnn2cccnc12)c1cc2c(cc1N1CCOCC1)C(=O)N(C[C@@H](F)C(C)(C)O)C2`, the dTM in assay [4] is 0.5 K.

As for `C=CC(=O)Nc1cc(-n2c(=O)ccc3cnc4ccc(-c5ccc(NS(C)(=O)=O)cc5)cc4c32)ccc1C`, the figures for the % of control in assay [5] (at 1 µM) and in assay [5] (at 10 µM) were 75% and 84%, respectively.

In assay [6], `CN1Cc2nccc(-c3cn(C)nc3-c3ccc(F)cc3)c2C1=O` yielded a % of inhibition of 0%.

In the case of `C=CC(=O)Nc1cccc(C(=O)Nc2ccc(Nc3cc(-c4[nH]c(SC)nc4C)ccn3)cc2)c1`, the % of control in assay [7] (at 1 µM) is 106%; in assay [7] (at 5 µM), 85%.

In turn, `Nc1cnc(N2CCc3cc(S(=O)(=O)Nc4c(F)cc(Cl)cc4F)cc(N4CCCC4=O)c32)nc1` [TP-020n] displayed a % of control in assay [8] of 88%.

Broadly, the Ki is the equilibrium dissociation constant of an inhibitor or competing ligand from its target.

These data come from ChEMBL document CHEMBL5465560, “Selectivity Literature for EUbOPEN Chemogenomic Library” (2024).
